Test results published in patent US20100247593A1, “NOVEL COMPOUNDS AND PHARMACEUTICAL PREPARATIONS” (priority 2007, published 2010).

Key:
male mice = experiment: Mice sexual behaviour test (number of mounts); format: in vivo
[1] = Stability in CDCl3 solution according to NMR spectra; format: physicochemical; details: CDCl3, 25° C.
Protocol: NMR spectra were recorded with a Varian UNITY INOVA 600 MHz spectrometer equipped with a cryoprobe in CDCl3 solution at 25° C. Chemical shifts are reported in ppm relative to residual solvent signal (δ(^1H) 7.25 ppm, δ(^13C) […]). Two-dimensional spectra recorded included DQF-COSY, NOESY, TOCSY, sensitivity-enhanced ^13C-HSQC and ^13C-^1H HMBC. Pulsed-field gradients were used for all ^13C correlation spectra. The NOESY mixing time was 800 ms, the TOCSY one 70 ms. ^13C-HMBC spectra were recorded with coupling evolution delay for the generation of multiple-bond correlations set to 62.5 ms. All 2D spectra were run with 4096*1024 points data matrix, giving τ2max=250 ms for ^1H nucleus in acquisition dimension and τ1max=100 ms for ^1H or τ1max=50 ms for ^13C for indirect dimension. Prior to Fourier transform the data matrix was zero-filled twice and multiplication by shifted sine-bell window function applied. For ^1H-^13C HMBC the magnitude spectra were calculated. Graphs from the spectra recorded are shown in drawing section FIGS. 15-27.

SMILES	increase of number of mounts counted during the 3 hour period (male mice; subcutaneous 0.4 mg/kg x3 days, D4)	sexual activity (number of mounts over a 3 hour period) (male mice; subcutaneous in sun-flower oil x3 days, lowest dose (0.004 mg/kg))	sexual activity (number of mounts over a 3 hour period) (male mice; subcutaneous in sun-flower oil x3 days, two highest doses (0.4 and 0.04 mg/kg), D-4, D-7, D-14)	activity (Umnt) = 1/EC50 (male mice; subcutaneous x3 days, 7th day as basis)	time course of the effect on number of mounts (male mice; subcutaneous x3 days, tested D-4, D-7, D-14)	stability in CDCl3 solution according to the NMR spectra [1]	sexual activity (number of mounts over a 3 hour period) (male mice; subcutaneous in sun flower-oil x3 days, highest dose (4 mg/kg), all days tested (D-4, D-7, D-14))	sexual activity (number of mounts over a 3 hour period) (male mice; subcutaneous x3 days, two lower doses (0.4 and 0.04 mg/kg))
COC(=O)CC1C2(C)CC34OC5(C)OC67C(CC(=O)OC6C3(OC(=O)C(C)C)C2OC(=O)C(C)C)C(C)(C(=O)c2ccoc2)CCC7(O5)C14C (stereo not drawn) [R306]	about 3.5 fold	tendency of increase	significant increases	about 15 U/mg	peaked at D7, while clear effects were seen also at D14	stable during several weeks		
COC(=O)CC1C2(C)CC34OC5(C)OC67C(C(C(=O)C(C)C)C(=O)OC6C3(O)C2OC(C)=O)C(C)(C(OC(C)=O)c2ccoc2)CCC7(O5)C14C (stereo not drawn) [R310]						consisted of two isomers which slowly interchanged	Significant increases	significantly increased only on D-4
